US4405637A, “β-Lactam antibacterial agents” (Beecham Group Limited, priority 1977, dated 1983)
Values after ≈ are worked out from the molar mass of the structure shown.

Tests used:
Test in all cases: inhibition of bacterial growth, MIC (agar)
Format in all cases: cell-based
Klebsiella aerogenes A = settings: read-out: concentration required to inhibit growth (MIC)
Shigella sonnei MB 11967 = settings: MB11967, read-out: concentration required to inhibit growth (MIC)
Staph. aureus Russell = settings: Staphylococcus aureus, read-out: concentration required to inhibit growth (MIC)
Staph. aureus 1517 = settings: Staphylococcus aureus, read-out: concentration required to inhibit growth (MIC)
Staph. aureus Oxford = settings: Staphylococcus aureus, read-out: concentration required to inhibit growth (MIC)
Strep pyogenes CN10 = settings: Streptococcus pyogenes, Staph. pyogenes CN 10 (so in the source), read-out: concentration required to inhibit growth (MIC)
E. coli 0111 = settings: Escherichia coli, read-out: concentration required to inhibit growth (MIC)
Proteus mirabilis C977 = settings: read-out: concentration required to inhibit growth (MIC)
[1] = system: Salmonella typhimurium CT10; settings: Salmonella enterica, read-out: concentration required to inhibit growth (MIC)
Bacillus subtilis A = settings: read-out: concentration required to inhibit growth (MIC)
Citrobacter freundii E8 = settings: read-out: concentration required to inhibit growth (MIC)
Enterobacter cloacae N1 = settings: read-out: concentration required to inhibit growth (MIC)
Serratia marcescens US20 = settings: read-out: concentration required to inhibit growth (MIC)
Proteus morganii I 580 = settings: Morganella morganii, I580, read-out: concentration required to inhibit growth (MIC)
Proteus rettgeri WM16 = settings: Providencia rettgeri, read-out: concentration required to inhibit growth (MIC)
Salmonella typhimurium = settings: Salmonella enterica, Salmonella typhimurium (strain not given), read-out: concentration required to inhibit growth (MIC)

COC(=O)/C=C/C[C@@H]1C(=O)N2C(C(=O)OC3OC(=O)c4ccccc43)=CC[C@H]12 (relative stereo) [Compound 41, Phthalidyl 6-(3-methoxycarbonyl-2-propen-1-yl)-7-oxo-1-azabicyclo[3,2,0]hept-2-ene-2-carboxylate] gave an MIC (Klebsiella aerogenes A) of 50 µg/mL (≈ 130 µM), an MIC (Shigella sonnei MB 11967) of 50 µg/mL (≈ 130 µM) and an MIC (Staph. aureus Russell) of at most 0.8 µg/mL. The MIC (Staph. aureus 1517) was at most 0.8 µg/mL, the MIC (Staph. aureus Oxford) was at most 0.8 µg/mL and the MIC (Strep pyogenes CN10) was at most 0.8 µg/mL. The MIC (E. coli 0111) was 50 µg/mL (≈ 130 µM), the MIC (Proteus mirabilis C977) was 100 µg/mL (≈ 261 µM) and the MIC [1] was 50 µg/mL (≈ 130 µM).

With N#C/C=C/C[C@@H]1C(=O)N2C(C(=O)OCc3ccccc3)=CC[C@H]12 (relative stereo) [Compound 56, Benzyl 6-(3-cyano-2-propen-1-yl)-7-oxo-1-azabicyclo[3,2,0]hept-2-ene-2-carboxylat] the MIC (Bacillus subtilis A) was 20 µg/mL (≈ 64.9 µM), the MIC (Citrobacter freundii E8) was 20 µg/mL (≈ 64.9 µM) and the MIC (Klebsiella aerogenes A) was 20 µg/mL (≈ 64.9 µM). The MIC (Shigella sonnei MB 11967) was 20 µg/mL (≈ 64.9 µM), the MIC (Staph. aureus Russell) was at most 2 µg/mL and the MIC (Staph. aureus 1517) was at most 2 µg/mL. It also gave an MIC (Staph. aureus Oxford) of at most 2 µg/mL, an MIC (Enterobacter cloacae N1) of 20 µg/mL (≈ 64.9 µM) and an MIC (Serratia marcescens US20) of 20 µg/mL (≈ 64.9 µM). The MIC (E. coli 0111) was 20 µg/mL (≈ 64.9 µM), the MIC (Proteus mirabilis C977) was 20 µg/mL (≈ 64.9 µM) and the MIC [1] was 20 µg/mL (≈ 64.9 µM). The MIC (Proteus morganii I 580) was 20 µg/mL (≈ 64.9 µM) and the MIC (Proteus rettgeri WM16) was 20 µg/mL (≈ 64.9 µM).

Work on N#C/C=C/C[C@@H]1C(=O)N2C(C(=O)OC3OC(=O)c4ccccc43)=CC[C@H]12 (relative stereo) [Compound 61, Phthalidyl 6-(3-cyano-2-propen-1-yl)-7-oxo-1-azabicyclo[3.2.0]hept-2-ene-2-carboxylat] yielded an MIC (Salmonella typhimurium) of 7 µg/mL (≈ 20 µM).

Molecule CC(C)(O)[C@@H]1C(=O)N2C(C(=O)OCc3ccccc3)=CC[C@H]12 (relative stereo) [Example 4 cis-isomer, Benzyl 6-(2-hydroxy-2-propyl)-7-oxo-1-azabicyclo[3,2,0]hept-2-ene-2-carboxylate] has an MIC (Klebsiella aerogenes A) of at most 2 µg/mL, an MIC (Shigella sonnei MB 11967) of at most 2 µg/mL and an MIC (Staph. aureus Russell) of at most 2 µg/mL. For the same molecule, the MIC (Staph. aureus Oxford) was at most 2 µg/mL, the MIC (Enterobacter cloacae N1) was 20 µg/mL (≈ 66.4 µM) and the MIC (Serratia marcescens US20) was 20 µg/mL (≈ 66.4 µM).
